Values of other authors, collected in patent publication US20080112943A1, “Biosynthetic Polypeptide Fusion Inhibitors” (priority 2005, published 2008).

Legend:
[1] = in vitro studies and in animals
[2] = tested on: monocytes and neutrophils
[3] = tested on: HIV-1
[4] = target: T1, N-formyl peptide receptor (Homo sapiens, UniProt P21462); conditions: human phagocytes
T1 construct: host or cells: human phagocytes (endogenous receptor)
T1 sequence (P21462 1-350): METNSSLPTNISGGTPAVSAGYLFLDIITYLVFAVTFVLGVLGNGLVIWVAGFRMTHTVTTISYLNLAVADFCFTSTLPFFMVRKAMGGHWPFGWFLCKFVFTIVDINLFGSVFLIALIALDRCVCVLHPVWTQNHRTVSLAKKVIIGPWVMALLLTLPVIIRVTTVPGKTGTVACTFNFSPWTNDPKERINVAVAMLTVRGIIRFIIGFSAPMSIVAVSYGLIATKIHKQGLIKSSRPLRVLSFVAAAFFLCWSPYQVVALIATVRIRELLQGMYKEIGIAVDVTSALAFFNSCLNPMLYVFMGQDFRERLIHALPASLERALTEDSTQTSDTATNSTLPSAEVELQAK

For enfuvirtide, the toxicity [1] is listed as “non-toxic”, the “chemoattractant and activator of monocytes and neutrophils” value [2] is listed as “chemoattractant and activator” and the “inhibition of HIV-1 mediated CD-4+ cell-cell fusion (i.e., syncytial formation) and infection of CD-4+ cells by cell-free virus” value [3] is listed as “potent inhibitor”. The “activation of the N-formyl peptide receptor” value [4] was “activates”.
